From ChEMBL document CHEMBL5726496, “Piperidine derivatives as HDAC1/2 inhibitors” (2017)

molecular target: Histone deacetylase 1 (Homo sapiens, UniProt Q13547); experiment: Enzyme Assay: Compounds for testing were diluted in DMSO to 50 fold the final concentration and a ten point three fold dilution series was made. The compounds were diluted in assay buffer (50 mM HEPES, pH 7.4, 100 mM KCl, 0.001% Tween-20, 0.05% BSA, 20 μM tris(2-carboxyethyl)phosphine) to 6 fold their final concentration. The HDAC enzymes (purchased from BPS Biosciences) were diluted to 1.5 fold their final concentration in assay buffer and pre-incubated with the compounds for 24 hours prior to addition of the substrate.
Sequence (Q13547 whole entry): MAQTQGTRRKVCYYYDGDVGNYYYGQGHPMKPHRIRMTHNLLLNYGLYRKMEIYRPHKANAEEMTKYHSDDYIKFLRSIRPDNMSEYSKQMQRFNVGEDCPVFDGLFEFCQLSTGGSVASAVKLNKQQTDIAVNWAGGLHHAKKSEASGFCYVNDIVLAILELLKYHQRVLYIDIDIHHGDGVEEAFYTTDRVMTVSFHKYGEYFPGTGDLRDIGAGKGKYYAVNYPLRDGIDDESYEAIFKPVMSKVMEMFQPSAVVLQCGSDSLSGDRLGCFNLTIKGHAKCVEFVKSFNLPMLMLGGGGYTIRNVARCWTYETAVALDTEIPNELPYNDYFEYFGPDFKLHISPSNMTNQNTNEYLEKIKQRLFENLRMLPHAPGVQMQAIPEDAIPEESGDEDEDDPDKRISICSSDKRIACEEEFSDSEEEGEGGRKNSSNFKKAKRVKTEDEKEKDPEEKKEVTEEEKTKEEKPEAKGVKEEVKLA

IC50 [nM]	Structure (SMILES)
48	CN(c1ncc(C(=O)Nc2cc(-c3ccccc3)ccc2N)cn1)C1CCN(C(=O)Cc2c[nH]c3ccccc23)CC1
22	Nc1ccc(-c2ccccc2)cc1NC(=O)c1cnc(NC2CCN(C(=O)Cc3c[nH]c4ccccc34)CC2)nc1
14	CC1(Nc2ncc(C(=O)Nc3cc(-c4ccccc4)ccc3N)cn2)CCNCC1
